According to patent US8999976B2, “Modulators of cystic fibrosis transmembrane conductance regulator” (Vertex Pharmaceuticals Incorporated, priority 2008, dated 2015):

Target: T1, ΔF508-CFTR (Homo sapiens, UniProt P13569, DEL508-508)
T1 construct: expressed in transfected cells
Test: Membrane potential optical assay for potentiators of ΔF508-CFTR (FLIPR III, voltage sensing dyes)
Format: cell-based
Settings: for Emax: NIH3T3, 100% efficacy is the maximum response obtained with 4-methyl-2-(5-phenyl-1H-pyrazol-3-yl)phenol, ΔF508 CFTR NIH 3T3 cells; for EC50: temperature-corrected ΔF508 CFTR NIH 3T3 cells, forskolin activation
Excerpt: The assay utilizes fluorescent voltage sensing dyes to measure changes in membrane potential using a fluorescent plate reader (e.g., FLIPR III, Molecular Devices, Inc.) as a readout for increase in functional ΔF508-CFTR in NIH 3T3 cells.
To identify potentiators of ΔF508-CFTR, a double-addition HTS assay format was developed. This HTS assay utilizes fluorescent voltage sensing dyes to measure changes in membrane potential on the FLIPR III as a measurement for increase in gating (conductance) of ΔF508 CFTR in temperature-corrected ΔF508 CFTR NIH 3T3 cells.
Solutions • Bath Solution #1: (in mM) NaCl 160, KCl 4.5, CaCl2 2, MgCl2 1, HEPES 10, pH 7.4 with NaOH. • Chloride-Free Bath Solution: Chloride Salts in Bath Solution #1 are Substituted with Gluconate Salts.
NIH3T3 mouse fibroblasts stably expressing ΔF508-CFTR are used for optical measurements of membrane potential. The cells are maintained at 37° C. in 5% CO2 and 90% humidity in Dulbecco's modified Eagle's medium supplemented with 2 mM glutamine, 10% fetal bovine serum, 1×NEAA, β-ME, 1×pen/strep, and 25 mM HEPES in 175 cm^2 culture flasks. For all optical assays, the cells were seeded at ˜20,000/well in 384-well matrigel-coated plates and cultured for 2 hrs at 37° C. before culturing at 27° C. for 24 hrs. for the potentiator assay. For the correction assays, the cells are cultured at 27° C. or 37° C. with and without compounds for 16-24 hours. Electrophysiological Assays for assaying ΔF508-CFTR modulation properties of compounds.

T1 sequence (P13569 with tags, fused parts or gaps DEL508-508): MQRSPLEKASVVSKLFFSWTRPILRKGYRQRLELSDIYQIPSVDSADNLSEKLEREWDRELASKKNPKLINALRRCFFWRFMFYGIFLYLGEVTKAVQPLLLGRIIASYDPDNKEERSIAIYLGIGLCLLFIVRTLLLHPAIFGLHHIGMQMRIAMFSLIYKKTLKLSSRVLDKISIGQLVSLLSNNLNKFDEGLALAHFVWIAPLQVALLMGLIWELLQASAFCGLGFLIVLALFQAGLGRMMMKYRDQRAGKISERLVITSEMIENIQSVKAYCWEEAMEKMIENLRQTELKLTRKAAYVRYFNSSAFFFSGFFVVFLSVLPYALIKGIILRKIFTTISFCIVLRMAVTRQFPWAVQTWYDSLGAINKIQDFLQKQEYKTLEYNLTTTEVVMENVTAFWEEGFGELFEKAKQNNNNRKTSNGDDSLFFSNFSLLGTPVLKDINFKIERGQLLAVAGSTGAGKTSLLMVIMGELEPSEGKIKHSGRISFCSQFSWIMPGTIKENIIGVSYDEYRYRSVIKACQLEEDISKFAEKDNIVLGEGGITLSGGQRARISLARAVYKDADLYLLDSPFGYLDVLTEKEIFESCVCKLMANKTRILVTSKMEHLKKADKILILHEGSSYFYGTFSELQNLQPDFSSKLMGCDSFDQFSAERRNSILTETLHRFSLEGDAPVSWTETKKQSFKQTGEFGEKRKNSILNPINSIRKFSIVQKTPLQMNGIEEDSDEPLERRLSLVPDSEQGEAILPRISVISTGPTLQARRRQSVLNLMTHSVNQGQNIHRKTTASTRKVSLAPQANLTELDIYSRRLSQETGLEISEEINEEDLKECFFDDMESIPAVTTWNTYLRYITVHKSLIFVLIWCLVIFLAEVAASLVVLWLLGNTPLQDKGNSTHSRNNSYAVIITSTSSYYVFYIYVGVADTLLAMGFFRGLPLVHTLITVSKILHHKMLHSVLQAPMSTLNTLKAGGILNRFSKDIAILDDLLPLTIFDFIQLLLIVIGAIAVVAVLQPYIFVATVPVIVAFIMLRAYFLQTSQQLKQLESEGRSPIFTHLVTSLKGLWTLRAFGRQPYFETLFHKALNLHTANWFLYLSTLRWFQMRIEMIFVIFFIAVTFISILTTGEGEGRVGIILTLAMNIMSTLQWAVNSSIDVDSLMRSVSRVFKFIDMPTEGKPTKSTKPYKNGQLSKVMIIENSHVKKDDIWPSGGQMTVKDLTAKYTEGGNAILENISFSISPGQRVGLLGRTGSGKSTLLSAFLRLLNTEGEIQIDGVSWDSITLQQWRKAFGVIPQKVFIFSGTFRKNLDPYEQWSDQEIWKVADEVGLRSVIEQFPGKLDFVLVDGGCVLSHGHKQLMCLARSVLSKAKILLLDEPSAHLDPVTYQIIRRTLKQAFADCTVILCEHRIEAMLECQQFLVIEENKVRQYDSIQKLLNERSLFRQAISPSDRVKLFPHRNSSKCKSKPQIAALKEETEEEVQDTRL

| SMILES | Emax [%] | EC50 [µM] |
| --- | --- | --- |
| CN(C)CC#Cc1cc(C2CCCC2)ccc1NC(=O)C1CNc2cc(C#N)ccc2O1 (stereo not drawn) [Compound 110] | 25 to 100 | < 5 |
| CC(C)(C)c1ccc(NC(=O)C2CNc3cccc(F)c3O2)cc1O (stereo not drawn) [Compound 33] | 25 to 100 | < 5 |
| CN(C)CC#Cc1cc(C2CCCC2)c(O)cc1NC(=O)C1(C)CNc2cc(OC(F)(F)F)ccc2O1 (stereo not drawn) [Compound 79] | > 100 | < 5 |
| CN(C)CC#Cc1cc(C2CCCC2)c(O)cc1NC(=O)C1CNc2cc(OC(F)(F)F)ccc2O1 (stereo not drawn) [Compound 106] | > 100 | < 5 |
| N#Cc1cc(C2CCCC2)c(O)cc1NC(=O)[C@@H]1CNc2ccc(F)cc2O1 [Compound 50] | 25 to 100 | < 5 |
| CC(C)(C)c1ccc(NC(=O)C2CNc3ccc(C(F)(F)F)cc3O2)cc1O (stereo not drawn) [Compound 70] | 25 to 100 | < 5 |
| CC(C)(C)c1cc(C2CCCC2)c(O)cc1NC(=O)[C@@H]1CNc2cc(C#N)ccc2O1 [Compound 59] | 25 to 100 | < 5 |
| Cc1cc(C2CCCC2)c(O)cc1NC(=O)C1CNc2ccc(F)cc2O1 (stereo not drawn) [Compound 21] | 25 to 100 | < 5 |
| Cc1cc(C2CCCC2)c(O)cc1NC(=O)[C@@H]1CNc2cc(C#N)ccc2O1 [Compound 25] | 25 to 100 | < 5 |
| CN(C)CC#Cc1cc(N2C3CCC2CC3)ccc1NC(=O)C1CNc2cc(C#N)ccc2O1 (stereo not drawn) [Compound 43, N-(4-(7-azabicyclo[2.2.1]heptan-7-yl)-2-(3-(dimethylamino)prop-1-ynyl)phenyl)-6-cyano-3,4-dihydro-2H-benzo[b][1,4]oxazine-2-carboxamide] |  | < 5 |
| CCOC(=O)CCc1cc(C2CCCC2)c(O)cc1NC(=O)C1CNc2cc(OC(F)(F)F)ccc2O1 (stereo not drawn) [Compound 4] | > 100 | < 5 |
| Cc1cc(CN2CCC(C)CC2)c(NC(=O)C2CNc3cc(OC(F)(F)F)ccc3O2)cc1O (stereo not drawn) [Compound 126] | > 100 | < 5 |
| Cc1ccc(NC(=O)C2CNc3cc(OC(F)(F)F)ccc3O2)c(CCN2CCOCC2)c1 (stereo not drawn) [Compound 116] | 25 to 100 | < 5 |
| CN(C)CC#Cc1cc(C2CCCC2)c(O)cc1NC(=O)C1CNc2cc(F)ccc2O1 (stereo not drawn) [Compound 123] | 25 to 100 | < 5 |
| Cc1ccc2c(c1)OC(C(=O)Nc1cc(O)c(C3(C)CCCCC3)cc1F)CN2 (stereo not drawn) [Compound 2] | 25 to 100 | < 5 |
| N#Cc1cc(C2CCCC2)c(O)cc1NC(=O)C1CNc2ccc(F)cc2O1 (stereo not drawn) [Compound 23] | 25 to 100 | < 5 |
| CN(C)CC#Cc1cc(N2C3CCC2CC3)ccc1NC(=O)C1CNc2ccccc2O1 (stereo not drawn) [Compound 104] | 25 to 100 | 5 to 20 |
| CC(C)CC#Cc1cc(C2CCCC2)c(O)cc1NC(=O)C1CNc2cc(OC(F)(F)F)ccc2O1 (stereo not drawn) [Compound 53] | 25 to 100 | < 5 |
| O=C(Nc1ccc2c(C(F)(F)F)c[nH]c2c1)C1CNc2ccccc2O1 (stereo not drawn) [Compound 30] | 25 to 100 | 5 to 20 |
| Cc1ccc(NC(=O)C2CNc3cc(OC(F)(F)F)ccc3O2)c(-c2nc(CN(C)C)no2)c1 (stereo not drawn) [Compound 129] | 25 to 100 | < 5 |
| COc1ccc2c(c1)OC(C(=O)Nc1ccc(C(C)(C)C)c(O)c1)CN2 (stereo not drawn) [Compound 1] | < 25 | 5 to 20 |
| CC(C)(C)c1ccc(NC(=O)C2CNc3ccccc3S2(=O)=O)cc1O (stereo not drawn) [Compound 121, N-(4-tert-butyl-3-hydroxy-phenyl)-1,1-dioxo-3,4-dihydro-2H-benzo[b][1,4]thiazine-2-carboxamide] | 25 to 100 | < 5 |

| SMILES | Emax [%] | EC50 [µM] |
| --- | --- | --- |
| Cc1ccc(NC(=O)C2CNc3cc(OC(F)(F)F)ccc3O2)c(CCN2CC[C@@H](F)C2)c1 (stereo partly drawn) [Compound 119] | 25 to 100 | 5 to 20 |
| CC(C)(C)c1ccc(NC(=O)C2CNc3c(F)cccc3O2)cc1O (stereo not drawn) [Compound 78] | 25 to 100 | < 5 |
| CC(C)(C)c1ccc(NC(=O)C2CNc3cc(F)c(F)cc3O2)cc1O (stereo not drawn) [Compound 49] | 25 to 100 | < 5 |
| Cc1ccc2c(c1)NCC(C(=O)Nc1cc(O)c(C3(C)CCCCC3)cc1F)O2 (stereo not drawn) [Compound 97] | 25 to 100 | < 5 |
| O=C(O)CCc1cc(C2CCCC2)c(O)cc1NC(=O)C1CNc2cc(OC(F)(F)F)ccc2O1 (stereo not drawn) [Compound 16] | 25 to 100 | < 5 |
| CN(C)CC#Cc1cc(C2CCCC2)c(O)cc1NC(=O)[C@@H]1CNc2ccccc2O1 [Compound 37] | 25 to 100 | < 5 |
| Cc1cc(C2CCCC2)c(O)cc1NC(=O)[C@H]1CNc2cc(C#N)ccc2O1 [Compound 88] | 25 to 100 | < 5 |
| O=C(Nc1cc(O)c(C2CCCC2)cc1C#CCO)C1CNc2cc(OC(F)(F)F)ccc2O1 (stereo not drawn) [Compound 12] | 25 to 100 | < 5 |
| N#Cc1ccc2c(c1)NCC(C(=O)Nc1cc(O)c(C3CCCC3)cc1C1=CCNCC1)O2 (stereo not drawn) [Compound 11, 6-cyano-N-(4-cyclopentyl-5-hydroxy-2-(1,2,3,6-tetrahydropyridin-4-yl)phenyl)-3,4-dihydro-2H-benzo[b][1,4]oxazine-2-carboxamide] | 25 to 100 | 5 to 20 |
| COc1ccc2c(c1)NCC(C(=O)Nc1ccc(C(C)(C)C)c(O)c1)O2 (stereo not drawn) [Compound 14] | < 25 | 5 to 20 |
| Cc1cc(C#CCN(C)C)c(NC(=O)C2CNc3ccccc3O2)cc1F (stereo not drawn) [Compound 36] | 25 to 100 | 5 to 20 |
| CC(C)(C)c1ccc(NC(=O)C2CNc3cccc(C(F)(F)F)c3O2)cc1O (stereo not drawn) [Compound 85] | 25 to 100 | < 5 |
| CC(C)(C)c1ccc(NC(=O)C2CNc3ccccc3O2)cc1F (stereo not drawn) [Compound 92] | 25 to 100 | < 5 |
| Cc1ccc(NC(=O)C2CNc3cc(OC(F)(F)F)ccc3O2)c(C#CCN2CCC(C(=O)O)CC2)c1 (stereo not drawn) [Compound 69] | 25 to 100 | 5 to 20 |
| Cc1cc(C)c(NC(=O)C2CNc3cc(OC(F)(F)F)ccc3O2)c(C#CCN(C)C)c1 (stereo not drawn) [Compound 15] | 25 to 100 | < 5 |
| CC(C)(C)c1ccc(NC(=O)[C@@H]2CNc3ccc(F)cc3O2)cc1O [Compound 83] | 25 to 100 | < 5 |
| Cc1cc(C2CCCC2)c(O)cc1NC(=O)C1CNc2cc(S(C)(=O)=O)ccc2O1 (stereo not drawn) [Compound 72] | 25 to 100 | < 5 |
| Cc1ccc(NC(=O)C2CNc3cc(OC(F)(F)F)ccc3O2)c(C#CCN2CCOCC2)c1 (stereo not drawn) [Compound 100, N-(4-methyl-2-(3-morpholinoprop-1-ynyl)phenyl)-6-(trifluoromethoxy)-3,4-dihydro-2H-benzo[b][1,4]oxazine-2-carboxamide] | > 100 | < 5 |
| O=C(Nc1cc(O)c(C2CCCC2)cc1C(F)(F)F)[C@@H]1CNc2cc(F)ccc2O1 [Compound 76] | 25 to 100 | < 5 |
| Cc1cc(C#CCN(C)C)c(NC(=O)C2CNc3cc(OC(F)(F)F)ccc3O2)cc1O (stereo not drawn) [Compound 7] | 25 to 100 | < 5 |
| CC(C)(C)c1ccc(NC(=O)[C@H]2CNc3ccc(F)cc3O2)cc1O [Compound 77] | 25 to 100 | < 5 |
| Cc1cc(C2CCCC2)c(O)cc1NC(=O)C1CNc2cc(C#N)ccc2O1 (stereo not drawn) [Compound 74] | 25 to 100 | < 5 |
